# Where “and” joins values, the source holds several entries; their conditions need not be identical. Equal entries are not always repeated.
# Experiments:
# P. aeruginosa PAO1 = assay: quantitative capillary chemotaxis assay
# PctA-LBD W128A = target: T1, PctA-LBD W128A (Pseudomonas aeruginosa, UniProt G3XD24, W128A); assay: biochemical; assay type: binding; details: PctA-LBD W128A 70 μM; DPD/AI-2 700 μM
# T1 construct: Amino acids 30-278 and 36-360 of PctA and TlpQ, respectively; His6 (N, cleaved yes); made in house; host or cells: E. coli BL21(DE3) (pET-28a derivative)
# T1 sequence (G3XD24 30-278 W128A): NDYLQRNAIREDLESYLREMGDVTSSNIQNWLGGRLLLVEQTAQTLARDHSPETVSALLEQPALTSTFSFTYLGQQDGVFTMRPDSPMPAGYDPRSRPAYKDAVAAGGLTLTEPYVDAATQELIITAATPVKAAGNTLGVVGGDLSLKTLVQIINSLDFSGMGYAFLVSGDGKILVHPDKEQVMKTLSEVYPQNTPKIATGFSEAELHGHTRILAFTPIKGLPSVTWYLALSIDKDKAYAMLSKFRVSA
# PctA-LBD = target: T2, PctA-LBD (Pseudomonas aeruginosa, UniProt G3XD24); assay: ITC binding to PctA-LBD; set-up: species or system P. aeruginosa; details: 700 μM DPD/AI-2 into 70 μM PctA-LBD (WT); 20 °C; normal conditions; mean ± s.d. of three in text/figure, single experiments in source data
# T2 construct: Amino acids 30-278 and 36-360 of PctA and TlpQ, respectively; His6 (N, cleaved yes); made in house; host or cells: E. coli BL21(DE3) (pET-28a derivative)
# T2 sequence (G3XD24 30-278): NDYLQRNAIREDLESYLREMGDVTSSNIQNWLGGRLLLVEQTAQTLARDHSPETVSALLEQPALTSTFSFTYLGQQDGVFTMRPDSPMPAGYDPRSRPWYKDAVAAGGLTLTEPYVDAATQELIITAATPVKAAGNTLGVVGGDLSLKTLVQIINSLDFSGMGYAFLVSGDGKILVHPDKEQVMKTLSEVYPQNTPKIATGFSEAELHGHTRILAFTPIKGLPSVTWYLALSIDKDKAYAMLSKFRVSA
# KinD-LBD = target: T3, KinD-LBD (Bacillus subtilis, UniProt O31671); assay: ITC binding to KinD-LBD; set-up: species or system B. subtilis; details: 700 μM DPD/AI-2 into 70 μM KinD-LBD
# T3 construct: the LBD of HK KinD from B. subtilis; His6 (N, cleaved yes); made in house; host or cells: E. coli BL21(DE3) (pET-28a derivative)
# T3 sequence (O31671 37-250): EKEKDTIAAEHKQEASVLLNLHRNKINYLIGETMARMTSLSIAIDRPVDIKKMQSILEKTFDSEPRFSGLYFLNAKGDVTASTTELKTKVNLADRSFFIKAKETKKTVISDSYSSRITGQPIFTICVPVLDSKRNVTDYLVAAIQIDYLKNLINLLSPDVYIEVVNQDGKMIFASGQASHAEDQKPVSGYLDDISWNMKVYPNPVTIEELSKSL
# PctB-LBD = PctB-LBD (Pseudomonas aeruginosa, UniProt Q9HW91); assay: ITC binding to PctB-LBD; details: 700 μM DPD/AI-2 into 70 μM PctB-LBD, minor heats, not certain whether they reflect binding
# PctB-LBD, sequence (Q9HW91 32-276): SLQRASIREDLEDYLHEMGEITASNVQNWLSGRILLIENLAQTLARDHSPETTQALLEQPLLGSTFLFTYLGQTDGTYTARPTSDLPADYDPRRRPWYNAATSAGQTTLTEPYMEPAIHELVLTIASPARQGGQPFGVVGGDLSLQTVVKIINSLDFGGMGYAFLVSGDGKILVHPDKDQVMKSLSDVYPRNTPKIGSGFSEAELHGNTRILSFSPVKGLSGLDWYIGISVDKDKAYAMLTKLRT
# Method: ITC experiments were performed at 20 °C using a Nano ITC Standard Volume isothermal calorimeter (TA Instruments, New Castle, DE). […] The stirring speed was 200 r.p.m. and 25 injections were used each experiment. Three independent experiments were performed for each sample. […] ITC data were analyzed and fit with a one-site independent binding model using the NanoAnalyze software version 3.4 provided by the manufacturer, with the heat of dilution subtracted from the experimental titrations before data analysis.
# LuxP = target: LuxP; set-up: method as in PMID 18215018; details: established receptor LuxP; cited from earlier work
structure (smiles),measurement,setting,value
"CC(=O)C(=O)C(O)CO (stereo not drawn) [DPD/AI-2, 4,5-dihydroxy-2,3-pentanedione]",Cells per capillary,"P. aeruginosa PAO1; 1 μM DPD/AI-2, PAO1, 30 min, buffer capillary subtracted",3700 and 4300 and 4700 and 2900 and 5300
same,Cells per capillary,"P. aeruginosa PAO1; 10 μM DPD/AI-2, PAO1, 30 min, buffer capillary subtracted",9900 and 11300 and 14200 and 11400 and 10800
same,Cells per capillary,"P. aeruginosa PAO1; 100 μM DPD/AI-2, PAO1, 30 min, buffer capillary subtracted",30800 and 31500 and 39700 and 42100 and 39200
same,Cells per capillary,"P. aeruginosa PAO1; 1000 μM DPD/AI-2, PAO1, 30 min, buffer capillary subtracted",23500 and 25700 and 24700 and 27800 and 19800
same,concentration of optimal chemotactic response,"P. aeruginosa PAO1; P. aeruginosa PAO1, capillary, 30 min",100 µM
same,Cells per capillary,"P. aeruginosa PAO1; strain ΔPA1608, 100 μM DPD/AI-2, Fig. 1d",37200 and 36700 and 39700 and 37700 and 35300
same,Cells per capillary,"P. aeruginosa PAO1; strain ΔPA1646, 100 μM DPD/AI-2, Fig. 1d",37700 and 38800 and 33600 and 35400 and 35300
same,Cells per capillary,"P. aeruginosa PAO1; strain ΔPA2573, 100 μM DPD/AI-2, Fig. 1d",39200 and 34600 and 39900 and 36000 and 39600
same,Cells per capillary,"P. aeruginosa PAO1; strain ΔPA2652, 100 μM DPD/AI-2, Fig. 1d",38500 and 34500 and 34200 and 36900 and 36500
same,Cells per capillary,"P. aeruginosa PAO1; strain ΔPA2788, 100 μM DPD/AI-2, Fig. 1d",33800 and 38800 and 38900 and 36100 and 38600
same,Cells per capillary,"P. aeruginosa PAO1; strain ΔPA2867, 100 μM DPD/AI-2, Fig. 1d",38500 and 34300 and 34100 and 37600 and 33900
same,Cells per capillary,"P. aeruginosa PAO1; strain ΔPA2920, 100 μM DPD/AI-2, Fig. 1d",36800 and 33100 and 39300 and 35100
same,Cells per capillary,"P. aeruginosa PAO1; strain ΔPA4290, 100 μM DPD/AI-2, Fig. 1d",35800 and 35100 and 37600 and 35000 and 38600
same,Cells per capillary,"P. aeruginosa PAO1; strain ΔPA4520, 100 μM DPD/AI-2, Fig. 1d",33900 and 37400 and 33500 and 36700
same,Cells per capillary,"P. aeruginosa PAO1; strain ΔPA4633, 100 μM DPD/AI-2, Fig. 1d",35700 and 39100
same,Cells per capillary,"P. aeruginosa PAO1; strain Δaer, 100 μM DPD/AI-2, Fig. 1d",36600 and 36200 and 39600 and 36400 and 37100
same,Cells per capillary,"P. aeruginosa PAO1; strain ΔctpH, 100 μM DPD/AI-2, Fig. 1d",38900 and 35200 and 37100 and 35400 and 36800
same,Cells per capillary,"P. aeruginosa PAO1; strain ΔmcpS, 100 μM DPD/AI-2, Fig. 1d",36800 and 35200 and 37500 and 35600 and 39600
same,Cells per capillary,"P. aeruginosa PAO1; strain ΔpctA, 100 μM DPD/AI-2, Fig. 1d",21400 and 23800 and 20800 and 21700 and 21800
same,Cells per capillary,"P. aeruginosa PAO1; strain ΔpctB, 100 μM DPD/AI-2, Fig. 1d",37100 and 39500 and 37300 and 38300 and 35300
same,Cells per capillary,"P. aeruginosa PAO1; strain ΔpctC, 100 μM DPD/AI-2, Fig. 1d",35300 and 37100 and 37200 and 36800 and 35800
same,Cells per capillary,"P. aeruginosa PAO1; strain ΔtlpQ, 100 μM DPD/AI-2, Fig. 1d",26100 and 28500 and 25300 and 27300 and 24300
same,Kd,PctA-LBD W128A,25000 nM and 24000 nM and 18000 nM
same,Kd,PctA-LBD,120 nM and 160 nM and 130 nM
same,Kd,KinD-LBD,120 nM and 160 nM and 150 nM
same,Kd,PctB-LBD,205000 nM and 176000 nM and 163000 nM
same,Kd,LuxP,160 nM

# — PMC7584622, “Sensing of autoinducer-2 by functionally distinct receptors in prokaryotes” (Nature Communications, 2020)
